Where two headings read alike, the source gives them in different places.
Key:
[1] = Tolerability in CD1 mice: kidney function, BUN (Example 37); settings: plasma, 50 mg/kg s.c. twice per week for 6 weeks
[2] = mouse, in vivo, sc, 50 mg/kg
[3] = Tolerability in CD1 mice: body weight and organ weights (Example 37); settings: 50 mg/kg s.c. twice per week for 6 weeks
Experimental: Body weight was measured at the onset of the study and subsequently twice per week. The body weights of the mice are presented in Table 80 and are expressed increase in grams over the PBS control weight taken before the start of treatment. Liver, spleen, and kidney weights were measured at the end of the study, and are also presented in Table 80 as percentage of the body weight.

[4] = Tolerability in CD1 mice: liver function (Example 41); settings: 50 mg/kg s.c. twice per week for 6 weeks, plasma
[5] = Tolerability in Sprague-Dawley rats: hematology assays (Example 35); settings: 50 mg/kg s.c. twice per week for 6 weeks
Experimental: A control group of four Sprague Dawley rats was injected subcutaneously with PBS twice per week for 6 weeks. Body weight measurements were taken before and throughout the treatment period. Urine samples were taken before the start of treatment. Three days after the last dose, urine samples were taken and the rats were sacrificed. Organ weights were measured and blood was collected for further analysis.
Blood obtained from all rat groups were sent to Antech Diagnostics for hematocrit (HCT), mean corpuscular volume (MCV), mean corpuscular hemoglobin (MCV), and mean corpuscular hemoglobin concentration (MCHC) measurements and analyses, as well as measurements of various blood cells, such as WBC (neutrophils, lymphocytes and monocytes), RBC, and platelets as well as hemoglobin content.

[6] = mouse, in vivo, sc, 50 mg/kg; remark: listed apart in the source
[7] = Body and organ weights of cynomolgus monkeys (Example 45); format: in vivo
Experimental: Groups, each consisting of two male and three female monkeys, were injected subcutaneously with ISIS 416838, ISIS 416850, ISIS 416858, ISIS 416864, or ISIS 417002 in escalating doses. Antisense oligonucleotide was administered to the monkeys at 5 mg/kg three times per a week for week 1; 5 mg/kg twice per week for weeks 2 and 3; 10 mg/kg three times per week for week 4; 10 mg/kg twice per week for weeks 5 and 6; 25 mg/kg three times per week for week 7; and 25 mg/kg twice per week for weeks 8, 9, 10, 11, and 12. One control group, consisting of two male and three female monkeys, was injected subcutaneously with PBS according to the same dosing regimen. An additional experimental group, consisting of two male and three female monkeys, was injected subcutaneously with ISIS 416850 in a chronic, lower dose regimen. Antisense oligonucleotide was administered to the monkeys at 5 mg/kg three times per week for week 1; 5 mg/kg twice per week for week 2 and 3; 10 mg/kg three times per week for week 4; and 10 mg/kg twice per week for weeks 5 to 12. Body weights were measured weekly. Blood samples were collected 14 days and 5 days before the start of treatment and subsequently once per week for Factor 11 protein activity analysis in plasma, fibrinogen measurement, PT and aPTT measurements, bleeding times, and measurement of various hematologic factors. On day 85, the monkeys were euthanized by exsanguination while under deep anesthesia, and organs harvested for further analysis.
Body weights were taken once weekly throughout the dosing regimen. […] Organ weights were taken after the animals were euthanized and livers, kidneys and spleens were harvested and weighed. […] The ISIS oligonucleotide, ISIS 416850, given with the chronic dose regimen is distinguished from the other oligonucleotides with an asterisk (*).

ISIS 416850: MOE gapmer, nucleobases 1275 to 1318 of SEQ ID NO: 1 (Table 8) (antisense TGCACAGTTTCTGGCAGGCC; MOE gapmer, wing and gap sizes not given here)
BUN [1]: 24 mg/dL | ALT [2]: 75 IU/L | AST [2]: 99 IU/L | Bilirubin [2]: 0.21 mg/dL | Cholesterol [2]: 142 mg/dL | body weight ([3]; increase in grams over the PBS control weight taken before the start of treatment): 12 g | Kidney weight ([3]; percentage of the body weight): 1.6% | Liver weight ([3]; percentage of the body weight): 6% | Spleen weight ([3]; percentage of the body weight): 0.4% | ALT [4]: 90 IU/L | AST [4]: 115 IU/L | Albumin [4]: 3.2 | Bilirubin [4]: 0.20 mg/dL | Platelets [5]: 26 10^3/μL | RBC [5]: 7 | WBC [5]: 16 nL⁻¹ | lymphocytes [5]: 8% | monocytes [5]: 11% | neutrophils [5]: 48% | HCT ([5]; title says % control): 5% | MCH ([5]; title says % control): 4 | MCHC ([5]; title says % control): 2% | MCV ([5]; title says % control): 3 | HCT [6]: 49% | Lymphocyte [6]: 4004 cells/μL | Neutrophil [6]: 1144 cells/μL | Platelets [6]: 916 10^3/μL | RBC [6]: 10 10^6/μL | WBC [6]: 5 10^3/μL | hemoglobin [6]: 15 g/dL | monocytes [6]: 156 cells/μL | body weights ([7]; day 1, chronic dose regimen (*)): 2665 g | body weights ([7]; day 1, escalating dose regimen): 2572 g | body weights ([7]; day 8, chronic dose regimen (*)): 2579 g | body weights ([7]; day 8, escalating dose regimen): 2430 g | body weights ([7]; day 15, chronic dose regimen (*)): 2607 g | body weights ([7]; day 15, escalating dose regimen): 2474 g | body weights ([7]; day 22, chronic dose regimen (*)): 2661 g | body weights ([7]; day 22, escalating dose regimen): 2514 g | body weights ([7]; day 29, chronic dose regimen (*)): 2667 g | body weights ([7]; day 29, escalating dose regimen): 2515 g | body weights ([7]; day 36, chronic dose regimen (*)): 2656 g | body weights ([7]; day 36, escalating dose regimen): 2545 g | body weights ([7]; day 43, chronic dose regimen (*)): 2670 g | body weights ([7]; day 43, escalating dose regimen): 2544 g | body weights ([7]; day 50, chronic dose regimen (*)): 2679 g | body weights ([7]; day 50, escalating dose regimen): 2613 g | body weights ([7]; day 57, escalating dose regimen): 2629 g | body weights ([7]; day 64, escalating dose regimen): 2642 g | body weights ([7]; day 71, escalating dose regimen): 2769 g | body weights ([7]; day 78, escalating dose regimen): 2660 g
